Each structure is given as a SMILES string.

In one assay the test system is S. epidermidis. Description: Growth of S. epidermidis in the presence of a single amino acid as supplement. The settings on record: 0.1% individual amino acid in 10% TSB + 1% glucose, 37° C., 24 hrs, absorbance at 600 nm normalized to control without amino acid; for activity at 0.1 %: Staphylococcus epidermidis. Format: cell-based. The protocol: The growth of the above commensal bacteria due to the presence of each of the twenty different amino acids separately was studied. All 20 L-amino acids were procured from Hi media. The stocks were prepared in distilled water and filter sterilized by passing it through 0.22 μm filter. A 100 mM sodium phosphate buffer pH 7.4 was prepared and filter sterilized. Reaction was set up in a 96 well flat bottom transparent plate. […] The final concentration of individual amino acid was 0.1%. Each reaction was set up in triplicates. The plate was incubated at 37° C. under stationary conditions for 24 hrs. After 24 hrs, the absorbance of the plate was measured at 600 nm using TECAN plate reader. The absorbance values were then normalized to control (S. epidermidis grown in 10% TSB+1% glucose).

For the next assay, the system named is S. aureus. Put plainly: Growth kinetics of S. aureus with individual amino acids. Format: cell-based. Particulars: 0.1 wt % individual amino acid; for Absorbance at 600 nm: S. aureus, growth till 20 hours; for inhibition of S. aureus (in words): among the seven selected. The procedure: In order to identify a set of amino acids which are major contributors to the higher growth rate of S. aureus in Mix 7, growth kinetics experiments were carried out with all seven individual amino acids. […] The experiment was carried out for growth till 20 hours. They were carried out at 0.1 wt % concentration of the individual amino acid.

For `CC(C)C[C@H](N)C(=O)O` [Example 1K, Leucine], the activity at 0.1 % with S. epidermidis is 96%. On to `C[C@@H](O)[C@H](N)C(=O)O` [Example 1R, Threonine], for which, in the assay with S. epidermidis, the activity at 0.1 % turned out to be 126%. In addition, the “Absorbance at 600 nm” value in the assay with S. aureus is 0.697.

Consider `CC(C)[C@H](N)C(=O)O` [Example 1T, Valine], for which, in the assay with S. epidermidis, the activity at 0.1 % came to 96%. For the compound `NC(=O)C[C@H](N)C(=O)O` [Example 1C, Asparagine], the activity at 0.1 % in the assay with S. epidermidis stood at 113%. With `CC[C@H](C)[C@H](N)C(=O)O` [Example 1J, Isoleucine], in the assay on S. epidermidis, the activity at 0.1 % came to 99%.

For the compound `CC(N)C(=O)O` (stereo not drawn) [Example 1A, Alanine], the activity at 0.1 % in the assay with S. epidermidis stood at 139%. Further, in the assay with S. aureus, the “inhibition of S. aureus (in words)” value was “maximum inhibition” and the “Absorbance at 600 nm” value came out at 0.447.

Take `N[C@@H](Cc1c[nH]cn1)C(=O)O` [Example 11, Histidine]: the activity at 0.1 % in the assay on S. epidermidis stood at 96%.

As for `N[C@@H](CO)C(=O)O` [Example 1P, Serine], in the assay with S. epidermidis, the activity at 0.1 % was 134%. Moreover, in the assay on S. aureus, the “inhibition of S. aureus (in words)” value is reported as “maximum inhibition” and the “Absorbance at 600 nm” value was determined as 0.504. On to `CSCC[C@H](N)C(=O)O` [Example 1M, Methionine], for which the activity at 0.1 % in the assay with S. epidermidis turned out to be 87%.

In the case of `NC(=O)CC[C@H](N)C(=O)O` [Example 1H, Glutamine], the activity at 0.1 % with S. epidermidis stood at 109%. `N[C@@H](Cc1ccc(O)cc1)C(=O)O` [Example 1Q, Tyrosine]: the activity at 0.1 % with S. epidermidis stood at 120%. Further, in the assay with S. aureus, the “inhibition of S. aureus (in words)” value is listed as “maximum inhibition” and the “Absorbance at 600 nm” value was 0.478.

Turning to `NC(CC(=O)O)C(=O)O` (stereo not drawn) [Example 1D, Aspartic acid], the activity at 0.1 % in the assay with S. epidermidis came to 121%. Moreover, in the assay with S. aureus, the “inhibition of S. aureus (in words)” value is “maximum inhibition” and the “Absorbance at 600 nm” value is given as 0.540.

`NCC(=O)O` [Example 1F, Glycine]: in the assay with S. epidermidis, the “% growth” value is listed as 135%. The “Absorbance at 600 nm” value with S. aureus is on record as 0.863. Regarding `NC(CS)C(=O)O` (stereo not drawn) [Example 1E, Cysteine], in the assay on S. epidermidis, the activity at 0.1 % stood at 121%. Moreover, in the assay on S. aureus, the “inhibition of S. aureus (in words)” value is “maximum inhibition” and the “Absorbance at 600 nm” value is recorded as 0.476. Take `O=C(O)[C@@H]1CCCN1` [Example 1O, Proline]: the activity at 0.1 % with S. epidermidis came to 93%.

For the origin of these results see patent publication US20230329989A1, “A PERSONAL CARE COMPOSITION COMPRISING AMINO ACIDS” (priority 2020, published 2023).
